Experimental data from patent publication US10351594B2, “Process for preparing compounds having triple activities of thrombolysis, antithrombosis, and radical scavenging” (Shanghai Lumosa Therapeutics Co., Ltd., priority 2013, dated 2019).
Read-outs that look alike come from different tables or passages of the source.

Test system: stroke rats
[1] = 1 μmol/kg 5Ak after 4 hours from stroke onset, 1st day
[2] = 1 μmol/kg 5Ak after 4 hours from stroke onset, 2nd day
[3] = 1 μmol/kg 5Ak after 4 hours from stroke onset, 3rd day
[4] = 1 μmol/kg 5Ak after 4 hours from stroke onset, 4th day
[5] = 1 μmol/kg 5Ak after 4 hours from stroke onset, 5th day
[6] = 1 μmol/kg 5Ak after 4 hours from stroke onset, 6th day
[7] = 1 μmol/kg 5Ak after 6 hours from stroke onset, 1st day
[8] = 1 μmol/kg 5Ak after 6 hours from stroke onset, 2nd day
[9] = 1 μmol/kg 5Ak after 6 hours from stroke onset, 3rd day
[10] = 1 μmol/kg 5Ak after 6 hours from stroke onset, 4th day
[11] = 1 μmol/kg 5Ak after 6 hours from stroke onset, 5th day
[12] = 1 μmol/kg 5Ak after 6 hours from stroke onset, 6th day
[13] = 1 μmol/kg 5Ak after 24 hours from stroke onset, 1st day
[14] = 1 μmol/kg 5Ak after 24 hours from stroke onset, 2nd day
[15] = 1 μmol/kg 5Ak after 24 hours from stroke onset, 3rd day
[16] = 1 μmol/kg 5Ak after 24 hours from stroke onset, 4th day
[17] = 1 μmol/kg 5Ak after 24 hours from stroke onset, 5th day
[18] = 1 μmol/kg 5Ak after 24 hours from stroke onset, 6th day
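Note: male SD rats with thrombus-induced cerebral embolism via internal carotid artery, scored daily by Zealonga neurological deficit scale (0 no deficit to 5 death), lower score better.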

Method: The therapeutic effect was evaluated by neurological functional scores. The lower the score was, the better the therapeutic effect was. A 10% chloral hydrate solution was injected intraperitoneally into male SD rats at a dosage of 400 mg/kg body weight for anesthesia. A longitudinal incision was made at the center of the neck, and the right common carotid artery trunk was separated (about 3 cm in length). External carotid artery branches were each separated and ligated at the hyoid level, and the internal carotid artery was separated from the swollen part of the neck. The incision of the internal carotid artery and the proximal end of the common carotid artery were clipped respectively with noninvasive arterial clips, and the distal end of the external carotid artery was ligated. A catheter containing 0.5 mL thrombus suspension in normal saline was inserted in the external carotid artery trunk. When the clip on the internal carotid artery was released, the 0.5 mL thrombus suspension in normal saline in the catheter slowly flew from the external carotid artery to its proximal end, and then was injected into the arteries in brain through the internal carotid artery. Subsequently, the proximal end of the internal carotid artery was ligated, the arterial clips on the internal carotid artery and the common carotid artery were released, and blood flow was restored. After the wound was stitched up, 20,000 IU penicillin was intramuscularly injected for prevention from infection. […] Self-comparison was performed each day, and the neurological deficit degree was evaluated by the Zealonga method. A score of 0 indicated no sign of loss in neural function, 1 indicated the front limbs on the undamaged side could not stretch out, 2 indicated walking toward the undamaged side, 3 indicated tail-chasing walking in circles toward the undamaged side, 4 indicated involuntary walking with disturbance of consciousness, and 5 indicated death.

Q: What does the source list for `C[C@H](NC(=O)[C@@H]1CCCN1)C(=O)N[C@@H](CCCCN)C(=O)NCCCC[C@H](NC(=O)[C@@H]1Cc2cc(O)c(O)cc2C(C)(C)N1)C(=O)O` [Compound 5Ak, 3S-6,7-dihydroxy-1,1-dimethyl-1,2,3,4-tetrahydro-isoquinoline-3-acyl-Lys(Pro-Ala-Lys)]?
A: therapeutic effect, result in words (1 μmol/kg 5Ak after 4 hours from stroke onset): definite therapeutic effect; Daily neural function scores, number of rats under 0 score [1]: 3; Daily neural function scores, number of rats under 1 score [1]: 5; Daily neural function scores, number of rats under 2 scores [1]: 1; Daily neural function scores, number of rats under 3 scores [1]: 1; Daily neural function scores, number of rats under 4 scores [1]: 0; Daily neural function scores, number of rats under 5 scores [1]: 0; Daily neural function scores, number of rats under 0 score [2]: 5; Daily neural function scores, number of rats under 1 score [2]: 4; Daily neural function scores, number of rats under 2 scores [2]: 1; Daily neural function scores, number of rats under 3 scores [2]: 0; Daily neural function scores, number of rats under 4 scores [2]: 0; Daily neural function scores, number of rats under 5 scores [2]: 0; Daily neural function scores, number of rats under 0 score [3]: 3; Daily neural function scores, number of rats under 1 score [3]: 6; Daily neural function scores, number of rats under 2 scores [3]: 1; Daily neural function scores, number of rats under 3 scores [3]: 0; Daily neural function scores, number of rats under 4 scores [3]: 0; Daily neural function scores, number of rats under 5 scores [3]: 0; Daily neural function scores, number of rats under 0 score [4]: 8; Daily neural function scores, number of rats under 1 score [4]: 1; Daily neural function scores, number of rats under 2 scores [4]: 1; Daily neural function scores, number of rats under 3 scores [4]: 0; Daily neural function scores, number of rats under 4 scores [4]: 0; Daily neural function scores, number of rats under 5 scores [4]: 0; Daily neural function scores, number of rats under 0 score [5]: 6; Daily neural function scores, number of rats under 1 score [5]: 4; Daily neural function scores, number of rats under 2 scores [5]: 0; Daily neural function scores, number of rats under 3 scores [5]: 0; Daily neural function scores, number of rats under 4 scores [5]: 0; Daily neural function scores, number of rats under 5 scores [5]: 0; Daily neural function scores, number of rats under 0 score [6]: 8; Daily neural function scores, number of rats under 1 score [6]: 2; Daily neural function scores, number of rats under 2 scores [6]: 0; Daily neural function scores, number of rats under 3 scores [6]: 0; Daily neural function scores, number of rats under 4 scores [6]: 0; Daily neural function scores, number of rats under 5 scores [6]: 0; therapeutic effect, result in words (1 μmol/kg 5Ak after 6 hours from stroke onset): definite therapeutic effect; Daily neural function scores, number of rats under 0 score [7]: 0; Daily neural function scores, number of rats under 1 score [7]: 4; Daily neural function scores, number of rats under 2 scores [7]: 4; Daily neural function scores, number of rats under 3 scores [7]: 2; Daily neural function scores, number of rats under 4 scores [7]: 0; Daily neural function scores, number of rats under 5 scores [7]: 0; Daily neural function scores, number of rats under 0 score [8]: 0; Daily neural function scores, number of rats under 1 score [8]: 7; Daily neural function scores, number of rats under 2 scores [8]: 2; Daily neural function scores, number of rats under 3 scores [8]: 1; Daily neural function scores, number of rats under 4 scores [8]: 0; Daily neural function scores, number of rats under 5 scores [8]: 0; Daily neural function scores, number of rats under 0 score [9]: 1; Daily neural function scores, number of rats under 1 score [9]: 6; Daily neural function scores, number of rats under 2 scores [9]: 2; Daily neural function scores, number of rats under 3 scores [9]: 1; Daily neural function scores, number of rats under 4 scores [9]: 0; Daily neural function scores, number of rats under 5 scores [9]: 0; Daily neural function scores, number of rats under 0 score [10]: 4; Daily neural function scores, number of rats under 1 score [10]: 4; Daily neural function scores, number of rats under 2 scores [10]: 1; Daily neural function scores, number of rats under 3 scores [10]: 0; Daily neural function scores, number of rats under 4 scores [10]: 0; Daily neural function scores, number of rats under 5 scores [10]: 1; Daily neural function scores, number of rats under 0 score [11]: 7; Daily neural function scores, number of rats under 1 score [11]: 2; Daily neural function scores, number of rats under 2 scores [11]: 0; Daily neural function scores, number of rats under 3 scores [11]: 0; Daily neural function scores, number of rats under 4 scores [11]: 0; Daily neural function scores, number of rats under 5 scores [11]: 0; Daily neural function scores, number of rats under 0 score [12]: 6; Daily neural function scores, number of rats under 1 score [12]: 3; Daily neural function scores, number of rats under 2 scores [12]: 0; Daily neural function scores, number of rats under 3 scores [12]: 0; Daily neural function scores, number of rats under 4 scores [12]: 0; Daily neural function scores, number of rats under 5 scores [12]: 0; therapeutic effect, result in words (1 μmol/kg 5Ak after 24 hours from stroke onset): definite therapeutic effect; Daily neural function scores, number of rats under 0 score [13]: 1; Daily neural function scores, number of rats under 1 score [13]: 4; Daily neural function scores, number of rats under 2 scores [13]: 0; Daily neural function scores, number of rats under 3 scores [13]: 2; Daily neural function scores, number of rats under 4 scores [13]: 1; Daily neural function scores, number of rats under 5 scores [13]: 0; Daily neural function scores, number of rats under 0 score [14]: 2; Daily neural function scores, number of rats under 1 score [14]: 3; Daily neural function scores, number of rats under 2 scores [14]: 3; Daily neural function scores, number of rats under 3 scores [14]: 1; Daily neural function scores, number of rats under 4 scores [14]: 0; Daily neural function scores, number of rats under 5 scores [14]: 0; Daily neural function scores, number of rats under 0 score [15]: 3; Daily neural function scores, number of rats under 1 score [15]: 2; Daily neural function scores, number of rats under 2 scores [15]: 3; Daily neural function scores, number of rats under 3 scores [15]: 0; Daily neural function scores, number of rats under 4 scores [15]: 0; Daily neural function scores, number of rats under 5 scores [15]: 0; Daily neural function scores, number of rats under 0 score [16]: 2; Daily neural function scores, number of rats under 1 score [16]: 3; Daily neural function scores, number of rats under 2 scores [16]: 3; Daily neural function scores, number of rats under 3 scores [16]: 0; Daily neural function scores, number of rats under 4 scores [16]: 0; Daily neural function scores, number of rats under 5 scores [16]: 0; Daily neural function scores, number of rats under 0 score [17]: 4; Daily neural function scores, number of rats under 1 score [17]: 3; Daily neural function scores, number of rats under 2 scores [17]: 1; Daily neural function scores, number of rats under 3 scores [17]: 0; Daily neural function scores, number of rats under 4 scores [17]: 0; Daily neural function scores, number of rats under 5 scores [17]: 0; Daily neural function scores, number of rats under 0 score [18]: 3; Daily neural function scores, number of rats under 1 score [18]: 4; Daily neural function scores, number of rats under 2 scores [18]: 1; Daily neural function scores, number of rats under 3 scores [18]: 0; Daily neural function scores, number of rats under 4 scores [18]: 0; Daily neural function scores, number of rats under 5 scores [18]: 0; rats that died during successive 6-day treatment (1 μmol/kg 5Ak once per day after 4 hours from stroke onset, ten rats): no death occurred; rats that died during successive 6-day treatment (1 μmol/kg 5Ak once per day after 6 hours from stroke onset, n=10): one; rats that died during successive 6-day treatment (1 μmol/kg 5Ak once per day after 24 hours from stroke onset, 8 rats): no death occurred
